Measured values reported in ChEMBL document CHEMBL1909046, “DrugMatrix in vitro pharmacology data”.

Tests used:
[1] = molecular target: T1, C-C chemokine receptor type 4 (Homo sapiens, UniProt P51679); assay type: cell membranes, Chem-1, Membrane; details: chem-1; further: in other assays of this panel Not Active means under 50% inhibition at 10 µM
T1 sequence (P51679 whole entry): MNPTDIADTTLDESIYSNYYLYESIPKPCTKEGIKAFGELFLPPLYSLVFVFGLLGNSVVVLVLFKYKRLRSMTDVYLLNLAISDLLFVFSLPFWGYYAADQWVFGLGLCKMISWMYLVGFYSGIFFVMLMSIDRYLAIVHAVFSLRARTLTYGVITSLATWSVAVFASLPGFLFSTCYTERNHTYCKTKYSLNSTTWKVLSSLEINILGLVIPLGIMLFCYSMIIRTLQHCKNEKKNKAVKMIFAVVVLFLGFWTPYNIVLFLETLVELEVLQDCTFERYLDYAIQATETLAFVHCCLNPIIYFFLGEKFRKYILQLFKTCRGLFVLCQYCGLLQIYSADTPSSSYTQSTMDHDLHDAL

[2] = molecular target: T2, Type-2 angiotensin II receptor (Homo sapiens, UniProt P50052); assay type: cell-based; details: cho-k1; further: in other assays of this panel Not Active means under 50% inhibition at 10 µM
T2 sequence (P50052 whole entry): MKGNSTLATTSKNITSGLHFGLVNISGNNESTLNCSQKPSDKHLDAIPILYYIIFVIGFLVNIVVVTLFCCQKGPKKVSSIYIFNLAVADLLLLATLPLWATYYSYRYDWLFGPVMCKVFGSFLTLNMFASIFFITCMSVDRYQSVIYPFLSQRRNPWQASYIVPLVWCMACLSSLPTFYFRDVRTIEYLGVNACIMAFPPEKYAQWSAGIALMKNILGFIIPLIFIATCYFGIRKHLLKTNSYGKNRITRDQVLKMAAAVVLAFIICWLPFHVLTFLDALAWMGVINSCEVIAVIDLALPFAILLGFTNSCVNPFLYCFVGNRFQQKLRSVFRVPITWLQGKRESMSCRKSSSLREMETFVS

[3] = molecular target: Beta-2 adrenergic receptor (Homo sapiens, UniProt P07550); assay: DRUGMATRIX: Adrenergic beta2 radioligand binding (ligand: [3H] CGP-12177); assay type: cell membranes, CHO, Membrane; details: cho; Not Active = under 50% inhibition at 10 µM
[4] = molecular target: C-C chemokine receptor type 2 (Homo sapiens, UniProt P41597); assay type: cell membranes, CHO-K1, Membrane; details: cho-k1; further: in other assays of this panel Not Active means under 50% inhibition at 10 µM
Sequence of C-C chemokine receptor type 2 (P41597 whole entry): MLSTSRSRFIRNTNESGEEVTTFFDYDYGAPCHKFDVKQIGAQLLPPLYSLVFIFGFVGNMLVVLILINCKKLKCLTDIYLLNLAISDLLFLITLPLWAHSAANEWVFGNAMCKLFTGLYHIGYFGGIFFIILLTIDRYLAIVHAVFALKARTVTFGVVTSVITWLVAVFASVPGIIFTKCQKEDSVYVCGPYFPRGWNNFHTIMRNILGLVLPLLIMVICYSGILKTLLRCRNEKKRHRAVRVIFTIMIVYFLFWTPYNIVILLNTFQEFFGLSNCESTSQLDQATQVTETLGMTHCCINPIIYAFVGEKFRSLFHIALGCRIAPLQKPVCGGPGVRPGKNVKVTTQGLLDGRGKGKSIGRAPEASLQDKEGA

[5] = DRUGMATRIX: Sigma2 radioligand binding (ligand: [3H] Ifenprodil); assay type: cell membranes, Rattus norvegicus, Wistar, Brain, Membrane; details: Not Active = under 50% inhibition at 10 µM

O=C(c1ccccc1)c1ccc2n1CCC2C(=O)O (stereo not given) [KETOROLAC]
Not Active: IC50 [1] | IC50 [2] | IC50 [3] | IC50 [4] | IC50 [5] | Ki [5]

Cc1nnc(NS(=O)(=O)c2ccc(N)cc2)s1 [SULFAMETHIZOLE]
Not Active: IC50 [1] | IC50 [2] | IC50 [3] | IC50 [4] | IC50 [5] | Ki [5]

CCC(C)(C)C(=O)O[C@H]1C[C@@H](C)C=C2C=C[C@H](C)[C@H](CC[C@@H]3C[C@@H](O)CC(=O)O3)[C@H]21 [SIMVASTATIN]
Not Active: IC50 [1] | IC50 [2] | IC50 [3] | IC50 [4] | IC50 [5] | Ki [5]

Oc1ccc(/C=C/c2cc(O)cc(O)c2)cc1 [RESVERATROL]
Not Active: IC50 [1] | IC50 [2] | IC50 [3] | IC50 [4] | IC50 [5] | Ki [5]

Cc1cnc(NC(=O)C2=C(O)c3ccccc3S(=O)(=O)N2C)s1 [MELOXICAM]
Not Active: IC50 [1] | IC50 [2] | IC50 [3] | IC50 [4] | IC50 [5] | Ki [5]

CC[C@H](C)[C@@H](CO[C@@H](Cc1ccccc1)C(=O)N[C@@H](CCS(C)(=O)=O)C(=O)OC(C)C)NC[C@@H](N)CS
Not Active: IC50 [1] | IC50 [2] | IC50 [3] | IC50 [4] | IC50 [5] | Ki [5]

O=C1CC[C@@]2(O)[C@H]3Cc4ccc(O)c5c4[C@@]2(CCN3CC2CC2)[C@H]1O5 [NALTREXONE]
Not Active: IC50 [1] | IC50 [2] | IC50 [3] | IC50 [4] | IC50 [5] | Ki [5]

C=CCc1ccc2c(c1)OCO2 [SAFROLE]
Not Active: IC50 [1] | IC50 [2] | IC50 [3] | IC50 [4] | IC50 [5] | Ki [5]

O=[As][O-].[Na+] [SODIUM ARSENITE]
Not Active: IC50 [1] | IC50 [2] | IC50 [3] | IC50 [4] | IC50 [5] | Ki [5]

Cc1cn([C@H]2C=C[C@@H](CO)O2)c(=O)[nH]c1=O [STAVUDINE]
Not Active: IC50 [1] | IC50 [2] | IC50 [3] | IC50 [4] | IC50 [5] | Ki [5]

COC(=O)Nc1nc2ccc(C(=O)c3ccccc3)cc2[nH]1 [MEBENDAZOLE]
Not Active: IC50 [1] | IC50 [2] | IC50 [3] | IC50 [4] | IC50 [5] | Ki [5]

CC[C@H](C)C(=O)O[C@H]1CCC=C2C=C[C@H](C)[C@H](CC[C@@H]3C[C@@H](O)CC(=O)O3)[C@H]21 [MEVASTATIN]
Not Active: IC50 [1] | IC50 [2] | IC50 [3] | IC50 [4] | IC50 [5] | Ki [5]

O=C(OC[C@H]1O[C@@H](OC(=O)c2cc(O)c(O)c(OC(=O)c3cc(O)c(O)c(O)c3)c2)[C@H](OC(=O)c2cc(O)c(O)c(OC(=O)c3cc(O)c(O)c(O)c3)c2)[C@@H](OC(=O)c2cc(O)c(O)c(OC(=O)c3cc(O)c(O)c(O)c3)c2)[C@@H]1OC(=O)c1cc(O)c(O)c(OC(=O)c2cc(O)c(O)c(O)c2)c1)c1cc(O)c(O)c(OC(=O)c2cc(O)c(O)c(O)c2)c1 [TANNIC ACID]
Not Active: IC50 [1] | IC50 [2] | IC50 [3] | IC50 [4] | IC50 [5] | Ki [5]

LEAD(IV) ACETATE
Not Active: IC50 [1] | Ki [1] | IC50 [2] | Ki [2] | IC50 [3] | Ki [3] | IC50 [4] | Ki [4] | IC50 [5] | Ki [5]

CC#C[C@]1(O)CC[C@H]2[C@@H]3CCC4=CC(=O)CCC4=C3[C@@H](c3ccc(N(C)C)cc3)C[C@@]21C [MIFEPRISTONE]
Not Active: IC50 [1] | IC50 [2] | IC50 [3] | IC50 [4] | IC50 [5] | Ki [5]

Cc1[nH]c(=O)c(C#N)cc1-c1ccncc1 [MILRINONE]
Not Active: IC50 [1] | IC50 [2] | IC50 [3] | IC50 [4] | IC50 [5] | Ki [5]

CCN(CC)N=O [N-NITROSODIETHYLAMINE]
Not Active: IC50 [1] | IC50 [2] | IC50 [3] | IC50 [4] | IC50 [5] | Ki [5]

Cc1ccc(S(=O)(=O)NC(=O)NN2CCCCCC2)cc1 [TOLAZAMIDE]
Not Active: IC50 [1] | IC50 [2] | IC50 [3] | IC50 [4] | IC50 [5] | Ki [5]

CC(O)C(=O)O (stereo not given) [LACTIC ACID]
Not Active: IC50 [1] | IC50 [2] | IC50 [3] | IC50 [4] | IC50 [5] | Ki [5]

CS(=O)(=O)c1ccc(C2=C(c3ccccc3)C(=O)OC2)cc1 [ROFECOXIB]
Not Active: IC50 [1] | IC50 [2] | IC50 [3] | IC50 [4] | IC50 [5] | Ki [5]

CCOC(=O)C1=C(C)NC(C)=C(C(=O)OCC)C1c1ccccc1/C=C/C(=O)OC(C)(C)C [LACIDIPINE]
Not Active: IC50 [1] | IC50 [2] | IC50 [3] | IC50 [4] | IC50 [5] | Ki [5]

CC(N)C12CC3CC(CC(C3)C1)C2 (stereo not given) [RIMANTADINE]
Not Active: IC50 [1] | IC50 [2] | IC50 [3] | IC50 [4] | IC50 [5] | Ki [5]

CC(Cl)(Cl)Cl [TRICHLOROETHANE]
Not Active: IC50 [1] | IC50 [2] | IC50 [3] | IC50 [4] | IC50 [5] | Ki [5]

O=C(O)c1cc(/N=N/c2ccc(S(=O)(=O)Nc3ccccn3)cc2)ccc1O [SULFASALAZINE]
Not Active: IC50 [1] | IC50 [2] | IC50 [3] | IC50 [4] | IC50 [5] | Ki [5]

Cc1cccc(C)c1NC(=O)C(C)N (stereo not given) [TOCAINIDE]
Not Active: IC50 [1] | IC50 [2] | IC50 [3] | IC50 [4] | IC50 [5] | Ki [5]

CO[C@@]12[C@H](COC(N)=O)C3=C(C(=O)C(C)=C(N)C3=O)N1C[C@@H]1N[C@@H]12 [MITOMYCIN]
Not Active: IC50 [1] | IC50 [2] | IC50 [3] | IC50 [4] | IC50 [5] | Ki [5]
